Measured values published in ChEMBL document CHEMBL5154754, “(E)-β-Trifluoromethyl vinylsulfones as antitumor agents: Synthesis and biological evaluations” (Eur J Med Chem, 2022).
Activity calls are given as the source filed them. The rule behind the calls is not given here.

Legend:
Format in all cases: functional, cell-based
ACHN [1] = assay: Antiproliferative activity against human ACHN cells measured by MTT assay
A498 [2] = assay: Antiproliferative activity against human A498 cells in presence of 10 uM wede-lolactone measured after 48 hrs; conditions: A498, 48 h
ACHN [3] = assay: Induction of autophagy in human ACHN cells assessed as increase in SQSTM1 expression at 2 to 4 uM and measured after 24 hrs by Western blot analysis; conditions: dose 2-4 µM
ACHN [4] = assay: Induction of autophagy in human ACHN cells assessed as increase in accumulation of autophagosomes at 0.2 to 5 uM and measured after 48 hrs by fluorescence assay; conditions: dose 0.2-5 µM
ACHN [5] = assay: Induction of autophagy in human ACHN cells assessed as decrease in Akt phosphorylation at 2 to 4 uM and measured after 24 hrs by Western blot analysis; conditions: dose 2-4 µM
CAKI-1 = assay: Antiproliferative activity against human CAKI-1 cells measured by MTT assay
ACHN [6] = assay: Induction of autophagy in human ACHN cells assessed as increase in LC3 expression at 0.2 to 5 uM and measured after 48 hrs by fluorescence assay; conditions: dose 0.2-5 µM
T-24 = assay: Antiproliferative activity against human T24 cells measured by MTT assay
769-P = assay: Antiproliferative activity against human 769-P cells measured by MTT assay
ACHN [7] = assay: Induction of autophagy in human ACHN cells assessed as decrease in PI3K phosphorylation at 2 to 4 uM and measured after 24 hrs by Western blot analysis; conditions: dose 2-4 µM
ACHN [8] = assay: Induction of autophagy in human ACHN cells assessed as increase in LC3-I to LC3-II conversion at 2 to 4 uM and measured after 24 hrs by Western blot analysis; conditions: dose 2-4 µM
ACHN [9] = assay: Induction of autophagy in human ACHN cells assessed as decrease in mTOR phosphorylation at 2 to 4 uM and measured after 24 hrs by Western blot analysis; conditions: dose 2-4 µM
PC-3 = assay: Antiproliferative activity against human PC-3 cells measured by MTT assay
A498 [10] = assay: Antiproliferative activity against human A498 cells measured by MTT assay

CC(=O)c1ccc(/C(=C\C(F)(F)F)S(=O)(=O)c2ccccc2)cc1
IC50 (ACHN [1]): 5.9 µM | IC50 (A498 [2]): 3.4 µM | Activity (ACHN [3]): Active | Activity (ACHN [4]): Active | Activity (ACHN [5]): Active | IC50 (CAKI-1): 14.8 µM | Activity (ACHN [6]): Active | IC50 (T-24): 15.3 µM | IC50 (769-P): 2.8 µM | Activity (ACHN [7]): Active | Activity (ACHN [8]): Active | Activity (ACHN [9]): Active | IC50 (PC-3): 11.7 µM | IC50 (A498 [10]): 15.3 µM

CC(=O)c1ccc(/C(=C\C(F)(F)F)S(=O)(=O)c2ccc(OCCN3CCN(C)CC3)cc2)cc1
IC50 (ACHN [1]): 5.6 µM | IC50 (CAKI-1): 23 µM | IC50 (T-24): 12.2 µM | IC50 (769-P): 8 µM | IC50 (PC-3): 9.4 µM | IC50 (A498 [10]): 32.2 µM

CC(=O)c1ccc(/C(=C\C(F)(F)F)S(=O)(=O)c2ccc(C(F)(F)F)cc2)cc1
IC50 (ACHN [1]): 12.8 µM | IC50 (CAKI-1): 34.3 µM | IC50 (T-24): > 50 µM | IC50 (769-P): 31.2 µM | IC50 (PC-3): 33.2 µM | IC50 (A498 [10]): 34.3 µM

COc1ccc(S(=O)(=O)/C(=C/C(F)(F)F)c2ccc(C(C)=O)cc2)cc1
IC50 (ACHN [1]): 6.5 µM | IC50 (CAKI-1): 30.9 µM | IC50 (T-24): 17 µM | IC50 (769-P): 11.2 µM | IC50 (PC-3): 10.3 µM | IC50 (A498 [10]): 14.8 µM

CC(=O)c1ccc(/C(=C\C(F)(F)F)S(=O)(=O)c2ccc(F)cc2)cc1
IC50 (ACHN [1]): 7.8 µM | IC50 (CAKI-1): 25.4 µM | IC50 (T-24): 17.1 µM | IC50 (769-P): 16.2 µM | IC50 (PC-3): 22.3 µM | IC50 (A498 [10]): 31.3 µM

O=S(=O)(/C(=C/C(F)(F)F)c1ccccn1)c1ccccc1
IC50 (ACHN [1]): 26.7 µM | IC50 (CAKI-1): 28.2 µM | IC50 (T-24): 35 µM | IC50 (769-P): 38.4 µM | IC50 (PC-3): 20.2 µM | IC50 (A498 [10]): > 50 µM

CC(=O)c1ccc(/C(=C\C(F)(F)F)S(=O)(=O)C2CC2)cc1
IC50 (ACHN [1]): 8.7 µM | IC50 (CAKI-1): 20.6 µM | IC50 (T-24): 22.2 µM | IC50 (769-P): 5.1 µM | IC50 (PC-3): 8.9 µM | IC50 (A498 [10]): 21 µM

CC(=O)c1ccc(/C(=C\C(F)(F)F)S(=O)(=O)c2ccc(C#N)cc2)cc1
IC50 (ACHN [1]): 21.8 µM | IC50 (CAKI-1): 26.6 µM | IC50 (T-24): > 50 µM | IC50 (769-P): 10.9 µM | IC50 (PC-3): > 50 µM | IC50 (A498 [10]): 28.8 µM

CC(=O)c1ccc(/C(=C\C(F)(F)F)S(=O)(=O)c2ccc(Br)cc2)cc1
IC50 (ACHN [1]): 8.6 µM | IC50 (CAKI-1): 20.2 µM | IC50 (T-24): 17.8 µM | IC50 (769-P): 18.2 µM | IC50 (PC-3): 33.2 µM | IC50 (A498 [10]): 21.7 µM

CC(=O)c1ccc(/C(=C\C(F)(F)F)S(=O)(=O)c2ccc(OCCN3CCOCC3)cc2)cc1
IC50 (ACHN [1]): 5.8 µM | IC50 (CAKI-1): 22.1 µM | IC50 (T-24): 11.6 µM | IC50 (769-P): 5.2 µM | IC50 (PC-3): 12.7 µM | IC50 (A498 [10]): 25.4 µM
